Results from ChEMBL document CHEMBL5390254, “Discovery and Optimization of Novel hDHODH Inhibitors for the Treatment of Inflammatory Bowel Disease” (J Med Chem, 2023).
Activity calls are given as the source filed them. The rule behind the calls is not given here.

Assays:
[1] = Acute toxicity in BALB/c mouse assessed as changes in hematocrit level in blood at 1000 mg/kg,po and measured after 14 days by hematology test; assay type: organism-based; settings: in vivo, 336 h, time 14 day
Mus musculus [2] = test: Anti-inflammatory activity against DSS-induced acute ulcerative colitis in C57BL/6 mouse model assessed as decrease in IL-1beta mRNA expression level in colon at 100 mg/kg, po QD for 6 days by RT-PCR analysis; assay type: functional, organism-based; settings: time 6.0 day
[3] = Acute toxicity in BALB/c mouse assessed as tissue damage in heart at 1000 mg/kg,po and measured after 14 days by hematoxylin and eosin staining based microscopy; assay type: organism-based; settings: in vivo, 336 h, time 14 day
Mus musculus [4] = test: Anti-inflammatory activity against DSS-induced acute ulcerative colitis in C57BL/6 mouse model assessed as decrease in IL-6 production in colon at 100 mg/kg, po QD for 6 days by ELISA; assay type: functional, organism-based; settings: time 6.0 day
[5] = Acute toxicity in BALB/c mouse assessed as changes in UA level in serum at 1000 mg/kg,po and measured after 14 days by Biochemistry analysis; assay type: organism-based; settings: in vivo, 336 h, time 14 day
[6] = Acute toxicity in BALB/c mouse assessed as changes in ALB level in serum at 1000 mg/kg,po and measured after 14 days by Biochemistry analysis; assay type: organism-based; settings: in vivo, 336 h, time 14 day
[7] = Acute toxicity in BALB/c mouse assessed as changes in neutrophil level in blood at 1000 mg/kg,po and measured after 14 days by hematology test; assay type: organism-based; settings: in vivo, 336 h, time 14 day
Mus musculus [8] = test: Anti-inflammatory activity against DSS-induced acute ulcerative colitis in C57BL/6 mouse model assessed as decrease in colon length shortening at 100 mg/kg, po QD for 6 days (Rvb= 5.5cm); assay type: functional; settings: time 6 day
[9] = Metabolic stability in rat liver microsomes assessed as intrinsic clearance at 3 uM incubated upto 90 mins in presence of NADPH by LC-MS/MS analysis; assay type: ADME, Microsome; settings: read-out: CLH
[10] = Acute toxicity in BALB/c mouse assessed as changes in general health status at 1000 mg/kg,po and measured for 14 days; assay type: organism-based; settings: in vivo, 336 h, time 14 day
[11] = Acute toxicity in BALB/c mouse assessed as changes in hemoglobin level in blood at 1000 mg/kg,po and measured after 14 days by hematology test; assay type: organism-based; settings: in vivo, 336 h, time 14 day
[12] = Acute toxicity in BALB/c mouse assessed as changes in CK level in serum at 1000 mg/kg,po and measured after 14 days by Biochemistry analysis; assay type: organism-based; settings: in vivo, 336 h, time 14 day
[13] = Acute toxicity in BALB/c mouse assessed as changes in ALT level in serum at 1000 mg/kg,po and measured after 14 days by Biochemistry analysis; assay type: organism-based; settings: in vivo, 336 h, time 14 day
Mus musculus [14] = test: Anti-inflammatory activity against DSS-induced acute ulcerative colitis in C57BL/6 mouse model assessed as decrease in IL-6 mRNA expression level in colon at 100 mg/kg, po QD for 6 days by RT-PCR analysis; assay type: functional, organism-based; settings: time 6.0 day
[15] = Acute toxicity in BALB/c mouse assessed as changes in RBC level in blood at 1000 mg/kg,po and measured after 14 days by hematology test; assay type: organism-based, Erythrocyte; settings: in vivo, 336 h, time 14 day
[16] = Acute toxicity in BALB/c mouse assessed as changes in AST level in serum at 1000 mg/kg,po and measured after 14 days by Biochemistry analysis; assay type: organism-based; settings: in vivo, 336 h, time 14 day
Mus musculus [17] = test: Anti-inflammatory activity against DSS-induced acute ulcerative colitis in C57BL/6 mouse model assessed as decrease in IL-1beta production in colon at 100 mg/kg, po QD for 6 days by ELISA; assay type: functional, organism-based; settings: time 6.0 day
[18] = Acute toxicity in BALB/c mouse assessed as changes in TP level in serum at 1000 mg/kg,po and measured after 14 days by Biochemistry analysis; assay type: organism-based; settings: in vivo, 336 h, time 14 day
[19] = Acute toxicity in BALB/c mouse assessed as changes in WBC level in blood at 1000 mg/kg,po and measured after 14 days by hematology test; assay type: organism-based; settings: in vivo, 336 h, time 14 day
[20] = Acute toxicity in BALB/c mouse assessed as tissue damage in spleen at 1000 mg/kg,po and measured after 14 days by hematoxylin and eosin staining based microscopy; assay type: organism-based; settings: in vivo, 336 h, time 14 day
[21] = Acute toxicity in BALB/c mouse assessed as changes in lymph level in blood at 1000 mg/kg,po and measured after 14 days by hematology test; assay type: organism-based; settings: in vivo, 336 h, time 14 day
[22] = 1-octanol/water partition coefficient, logP of the compound at 2 mg by UPLC analysis; assay type: physicochemical
Mus musculus [23] = test: Anti-inflammatory activity against DSS-induced acute ulcerative colitis in C57BL/6 mouse model assessed as decrease in IL-17 production in colon at 100 mg/kg, po QD for 6 days by ELISA; assay type: functional, organism-based; settings: time 6.0 day
[24] = Acute toxicity in BALB/c mouse assessed as death at 1000 mg/kg,po and measured for 14 days; assay type: organism-based; settings: in vivo, 336 h, time 14 day
Mus musculus [25] = test: Anti-inflammatory activity against DSS-induced acute ulcerative colitis in C57BL/6 mouse model assessed as decrease in colon tissue damage score at 100 mg/kg, po QD for 6 days relative to DSS group; assay type: functional; design: scale not given: the % may be the effect or the level left; settings: time 6 day
[26] = Acute toxicity in BALB/c mouse assessed as changes in CREA level in serum at 1000 mg/kg,po and measured after 14 days by Biochemistry analysis; assay type: organism-based; settings: in vivo, 336 h, time 14 day
[27] = Acute toxicity in BALB/c mouse assessed as changes in LDH level in serum at 1000 mg/kg,po and measured after 14 days by Biochemistry analysis; assay type: organism-based; settings: in vivo, 336 h, time 14 day
[28] = Metabolic stability in mouse liver microsomes assessed as intrinsic clearance at 3 uM incubated upto 90 mins in presence of NADPH by LC-MS/MS analysis; assay type: ADME, Microsome; settings: read-out: CLH
[29] = Acute toxicity in BALB/c mouse assessed as tissue damage in liver at 1000 mg/kg,po and measured after 14 days by hematoxylin and eosin staining based microscopy; assay type: organism-based; settings: in vivo, 336 h, time 14 day
[30] = Metabolic stability in human liver microsomes assessed as intrinsic clearance at 3 uM incubated upto 90 mins in presence of NADPH by LC-MS/MS analysis; assay type: ADME, Microsome; settings: read-out: CLH
[31] = Metabolic stability in mouse liver microsomes assessed as half life at 3 uM incubated upto 90 mins in presence of NADPH by LC-MS/MS analysis; assay type: ADME, Microsome
[32] = Acute toxicity in BALB/c mouse assessed as tissue damage in kidney at 1000 mg/kg,po and measured after 14 days by hematoxylin and eosin staining based microscopy; assay type: organism-based; settings: in vivo, 336 h, time 14 day
[33] = Acute toxicity in BALB/c mouse assessed as body weight loss at 1000 mg/kg,po and measured for 14 days; assay type: organism-based; settings: in vivo, 336 h, time 14 day
Mus musculus [34] = test: Anti-inflammatory activity against DSS-induced acute ulcerative colitis in C57BL/6 mouse model assessed as decrease in body weight loss at 100 mg/kg, po QD for 6 days (Rvb= 25.6%); assay type: functional; design: scale not given: the % may be the effect or the level left; settings: time 6 day
[35] = Acute toxicity in BALB/c mouse assessed as changes in urea level in serum at 1000 mg/kg,po and measured after 14 days by Biochemistry analysis; assay type: organism-based; settings: in vivo, 336 h, time 14 day
Mus musculus [36] = test: Anti-inflammatory activity against DSS-induced acute ulcerative colitis in C57BL/6 mouse model assessed as decrease in IL-17 mRNA expression level in colon at 100 mg/kg, po QD for 6 days by RT-PCR analysis; assay type: functional, organism-based; settings: time 6.0 day
[37] = Acute toxicity in BALB/c mouse assessed as changes in ALP level in serum at 1000 mg/kg,po and measured after 14 days by Biochemistry analysis; assay type: organism-based; settings: in vivo, 336 h, time 14 day
[38] = Metabolic stability in human liver microsomes assessed as half life at 3 uM incubated upto 90 mins in presence of NADPH by LC-MS/MS analysis; assay type: ADME, Microsome
[39] = Metabolic stability in rat liver microsomes assessed as half life at 3 uM incubated upto 90 mins in presence of NADPH by LC-MS/MS analysis; assay type: ADME, Microsome
[40] = Acute toxicity in BALB/c mouse assessed as tissue damage in lung at 1000 mg/kg,po and measured after 14 days by hematoxylin and eosin staining based microscopy; assay type: organism-based; settings: in vivo, 336 h, time 14 day
[41] = Acute toxicity in BALB/c mouse assessed as changes in platelet count in blood at 1000 mg/kg,po and measured after 14 days by hematology test; assay type: organism-based; settings: in vivo, 336 h, time 14 day
[42] = Acute toxicity in po dosed BALB/c mouse assessed as maximum tolerate dose; assay type: organism-based; settings: in vivo
Mus musculus [43] = test: Anti-inflammatory activity against DSS-induced acute ulcerative colitis in C57BL/6 mouse model assessed as decrease in DAI score at 100 mg/kg, po QD for 6 days; assay type: functional, organism-based; settings: time 6.0 day

Fc1cccc(Cl)c1Cn1cc(-c2ncc(C3CC3)cn2)c2cccnc21
Activity [1]: Non-Toxic
Activity (Mus musculus [2]): Active
Activity [3]: Non-Toxic
Activity (Mus musculus [4]): Active
Activity [5]: Non-Toxic
Activity [6]: Non-Toxic
Activity [7]: Non-Toxic
Activity (Mus musculus [8]): 6.1 cm
CLint scaled at 3 µM [9]: 150 mL/min/kg
Activity [10]: Non-Toxic
Activity [11]: Non-Toxic
Activity [12]: Non-Toxic
Activity [13]: Non-Toxic
Activity (Mus musculus [14]): Active
Activity [15]: Non-Toxic
Activity [16]: Non-Toxic
Activity (Mus musculus [17]): Active
Activity [18]: Non-Toxic
Activity [19]: Non-Toxic
Activity [20]: Non-Toxic
Activity [21]: Non-Toxic
logP [22]: 5.3
Activity (Mus musculus [23]): Active
Activity [24]: Non-Toxic
Activity (Mus musculus [25]): 27.27%
Activity [26]: Non-Toxic
Activity [27]: Non-Toxic
CLint scaled at 3 µM [28]: 693 mL/min/kg
Activity [29]: Non-Toxic
CLint scaled at 3 µM [30]: 190 mL/min/kg
half-life at 3 µM [31]: 7.9 min
Activity [32]: Non-Toxic
Activity [33]: Non-Toxic
Activity (Mus musculus [34]): 17.6%
Activity [35]: Non-Toxic
Activity (Mus musculus [36]): Active
Activity [37]: Non-Toxic
half-life at 3 µM [38]: 9.2 min
half-life at 3 µM [39]: 16.5 min
Activity [40]: Non-Toxic
Activity [41]: Non-Toxic
MTD [42]: 1000 mg/kg
Activity (Mus musculus [43]): Active
